These results are taken from patent publication US20020051821A1, “Aliginate particle formulation” (priority 2000, published 2002).

The format of the data set is in vitro ADME. The note with it: human, topical or ocular, 3 mg. The protocol:
For a composition performance test that more closely parallels eventual practical use, candidate particle compositions can be injected into dermatomed, full thickness human skin samples. Replicate skin samples after injection can be placed on modified Franz diffusion cells containing 32° C. water, physiologic saline or buffer. Additives such as surfactants may be used to prevent binding to diffusion cell components and to maintain sink conditions. Two kinds of measurements can be made to assess performance of the formulation in the skin.
To measure the formulation performance in vitro, the active (guest) component(s) of candidate compositions can be collected by complete or aliquot replacement of the Franz cell receiver solution at predetermined time intervals for chemical assay using HPLC or other suitable analytical technique. Concentration data can be used to generate a delivery profile and calculate a steady state permeation rate. This technique can be used to screen formulations for early indication of drug binding to skin, drug dissolution, efficiency of particle penetration of stratum corneum, etc., prior to in vivo studies.
Modified Franz cells (6.9 ml) were designed for investigation of transdermal flux (FIG. 1). […]

Take Alginate: the Bioavailability is on record as 63.8%. To lysozyme [Neat lysozyme] belongs 7.1%.
